Drawing on ChEMBL document CHEMBL5465560, “Selectivity Literature for EUbOPEN Chemogenomic Library” (2024), this text covers % of control and % of inhibition for nine molecules.

The target of test [1] is Cyclin-dependent kinase 17 (Homo sapiens) (UniProt Q00537). The test is described as follows: Selectivity interaction (KinomeScan (DiscoverX)) EUB0000666a CDK17. The settings on record: at 10 µM.
In test [2] the target is Phosphatidylinositol 4-phosphate 3-kinase C2 domain-containing subunit beta (Homo sapiens) (UniProt O00750). Kind of test: Selectivity interaction (KinomeScan (DiscoverX)) EUB0001079a PIK3C2B. The settings on record: at 1 µM.
Test [3] has as its target Casein kinase I isoform epsilon (Homo sapiens, UniProt P49674). Kind of test: Selectivity interaction (Kinase panel (Invitrogen)) EUB0000639a CSNK1E. The settings on record: at 200 nM.
Test [4] concerns the target T1, Inhibitor of nuclear factor kappa-B kinase subunit beta (Homo sapiens) (UniProt O14920).
T1 sequence (whole entry): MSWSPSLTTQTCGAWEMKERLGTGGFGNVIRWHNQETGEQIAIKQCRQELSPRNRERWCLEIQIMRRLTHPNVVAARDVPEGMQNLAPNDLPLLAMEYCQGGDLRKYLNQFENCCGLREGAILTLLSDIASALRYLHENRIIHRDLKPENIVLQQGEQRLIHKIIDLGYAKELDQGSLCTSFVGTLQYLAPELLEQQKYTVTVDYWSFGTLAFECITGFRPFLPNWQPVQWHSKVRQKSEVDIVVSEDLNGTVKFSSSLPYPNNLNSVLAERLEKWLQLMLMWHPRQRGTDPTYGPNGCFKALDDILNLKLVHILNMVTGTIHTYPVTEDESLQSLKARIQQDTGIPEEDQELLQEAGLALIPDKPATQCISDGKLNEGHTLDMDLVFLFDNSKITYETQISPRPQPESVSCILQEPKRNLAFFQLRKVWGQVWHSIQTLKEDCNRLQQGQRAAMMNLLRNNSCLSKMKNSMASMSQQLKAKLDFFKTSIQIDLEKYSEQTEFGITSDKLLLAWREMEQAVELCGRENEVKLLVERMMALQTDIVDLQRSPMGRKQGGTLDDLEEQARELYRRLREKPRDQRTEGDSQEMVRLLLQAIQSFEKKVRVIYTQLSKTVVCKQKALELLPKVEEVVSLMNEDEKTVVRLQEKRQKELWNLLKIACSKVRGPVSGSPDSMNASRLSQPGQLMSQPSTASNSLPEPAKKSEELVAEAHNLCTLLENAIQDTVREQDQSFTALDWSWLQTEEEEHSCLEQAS
Kind of test: Selectivity interaction (Kinase panel (Invitrogen)) EUB0000639a IKBKB. The settings on record: at 200 nM.

In test [5] the target is T2, Non-receptor tyrosine-protein kinase TYK2 (Homo sapiens, UniProt P29597). Kind of test: Selectivity interaction (ActivX KiNativ screen (kinase selectivity in THP-1 cell lysates)) EUB0000639a TYK2. Format: subcellular. The settings on record: lysate, at 5 µM.
T2 sequence (P29597 whole entry): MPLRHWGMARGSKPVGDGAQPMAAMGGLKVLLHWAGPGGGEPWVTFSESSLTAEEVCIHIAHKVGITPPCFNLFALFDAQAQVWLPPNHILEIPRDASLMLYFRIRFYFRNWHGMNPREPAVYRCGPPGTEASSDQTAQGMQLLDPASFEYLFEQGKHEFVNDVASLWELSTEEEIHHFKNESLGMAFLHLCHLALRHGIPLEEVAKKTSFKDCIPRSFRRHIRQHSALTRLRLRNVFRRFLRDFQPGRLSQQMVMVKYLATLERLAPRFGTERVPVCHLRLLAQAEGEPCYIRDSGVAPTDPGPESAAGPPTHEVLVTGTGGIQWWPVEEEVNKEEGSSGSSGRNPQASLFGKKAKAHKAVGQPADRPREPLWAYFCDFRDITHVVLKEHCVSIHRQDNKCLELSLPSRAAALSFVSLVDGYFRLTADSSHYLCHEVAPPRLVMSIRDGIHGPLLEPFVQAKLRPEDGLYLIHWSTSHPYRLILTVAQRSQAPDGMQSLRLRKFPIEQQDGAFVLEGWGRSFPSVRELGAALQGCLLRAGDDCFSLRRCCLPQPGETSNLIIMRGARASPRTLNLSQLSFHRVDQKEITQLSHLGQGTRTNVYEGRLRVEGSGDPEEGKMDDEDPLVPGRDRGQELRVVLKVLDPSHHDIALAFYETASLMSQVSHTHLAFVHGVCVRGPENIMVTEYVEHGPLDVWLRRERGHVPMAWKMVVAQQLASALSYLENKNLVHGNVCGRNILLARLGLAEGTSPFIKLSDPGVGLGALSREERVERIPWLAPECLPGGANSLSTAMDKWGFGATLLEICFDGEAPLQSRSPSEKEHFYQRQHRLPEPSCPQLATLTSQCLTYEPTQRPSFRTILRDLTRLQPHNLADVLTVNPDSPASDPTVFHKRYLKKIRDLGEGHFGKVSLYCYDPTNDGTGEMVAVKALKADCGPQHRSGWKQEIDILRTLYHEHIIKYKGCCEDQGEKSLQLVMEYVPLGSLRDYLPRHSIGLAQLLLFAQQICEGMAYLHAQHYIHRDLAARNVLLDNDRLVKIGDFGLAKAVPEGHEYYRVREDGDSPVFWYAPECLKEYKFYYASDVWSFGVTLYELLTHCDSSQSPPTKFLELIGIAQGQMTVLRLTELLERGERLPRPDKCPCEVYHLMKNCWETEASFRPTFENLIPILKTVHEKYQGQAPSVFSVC
Test [6] deals with Mitogen-activated protein kinase 7 (Homo sapiens) (UniProt Q13164). Kind of test: Selectivity interaction (KinomeScan (DiscoverX)) EUB0000699a MAPK7. The settings on record: at 10 µM.
Mitogen-activated protein kinase 7 (Homo sapiens), sequence (Q13164 2-816 limits assumed): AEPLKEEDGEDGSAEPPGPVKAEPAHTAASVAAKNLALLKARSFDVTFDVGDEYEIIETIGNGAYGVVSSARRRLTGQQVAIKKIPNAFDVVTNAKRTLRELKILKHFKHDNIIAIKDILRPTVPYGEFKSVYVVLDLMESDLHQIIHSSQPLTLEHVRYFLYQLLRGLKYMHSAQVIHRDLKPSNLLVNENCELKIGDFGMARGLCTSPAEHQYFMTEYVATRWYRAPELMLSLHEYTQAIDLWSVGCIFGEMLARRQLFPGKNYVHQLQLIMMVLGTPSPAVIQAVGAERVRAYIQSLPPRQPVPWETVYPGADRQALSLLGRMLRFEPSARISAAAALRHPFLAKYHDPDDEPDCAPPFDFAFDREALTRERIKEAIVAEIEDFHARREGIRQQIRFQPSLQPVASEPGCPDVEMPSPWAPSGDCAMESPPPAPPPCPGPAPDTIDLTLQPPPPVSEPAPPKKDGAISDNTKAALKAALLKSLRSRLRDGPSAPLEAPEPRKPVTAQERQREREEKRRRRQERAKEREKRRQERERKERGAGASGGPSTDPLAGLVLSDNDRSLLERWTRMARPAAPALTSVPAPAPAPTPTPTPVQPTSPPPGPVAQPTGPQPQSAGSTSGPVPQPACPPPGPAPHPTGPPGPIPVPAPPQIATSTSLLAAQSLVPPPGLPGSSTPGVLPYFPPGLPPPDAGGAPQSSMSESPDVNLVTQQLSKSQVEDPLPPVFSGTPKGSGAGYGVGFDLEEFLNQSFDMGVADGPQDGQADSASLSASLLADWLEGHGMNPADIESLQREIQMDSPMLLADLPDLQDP
The target of test [7] is T2, Non-receptor tyrosine-protein kinase TYK2. Kind of test: Selectivity interaction (KinomeScan (DiscoverX)) EUB0001049a TYK2. The settings on record: at 1 µM.
For test [8], the target named is T1, Inhibitor of nuclear factor kappa-B kinase subunit beta (Homo sapiens). Kind of test: Selectivity interaction (KinomeScan (DiscoverX)) EUB0000695a IKBKB. The settings on record: at 100 nM.
For test [9], the target named is Calcium/calmodulin-dependent protein kinase kinase 2 (Homo sapiens) (UniProt Q96RR4). The test is described as follows: Selectivity interaction (KinomeScan (DiscoverX)) EUB0000045b CAMKK2.
Calcium/calmodulin-dependent protein kinase kinase 2 (Homo sapiens), sequence (Q96RR4 2-588 limits assumed): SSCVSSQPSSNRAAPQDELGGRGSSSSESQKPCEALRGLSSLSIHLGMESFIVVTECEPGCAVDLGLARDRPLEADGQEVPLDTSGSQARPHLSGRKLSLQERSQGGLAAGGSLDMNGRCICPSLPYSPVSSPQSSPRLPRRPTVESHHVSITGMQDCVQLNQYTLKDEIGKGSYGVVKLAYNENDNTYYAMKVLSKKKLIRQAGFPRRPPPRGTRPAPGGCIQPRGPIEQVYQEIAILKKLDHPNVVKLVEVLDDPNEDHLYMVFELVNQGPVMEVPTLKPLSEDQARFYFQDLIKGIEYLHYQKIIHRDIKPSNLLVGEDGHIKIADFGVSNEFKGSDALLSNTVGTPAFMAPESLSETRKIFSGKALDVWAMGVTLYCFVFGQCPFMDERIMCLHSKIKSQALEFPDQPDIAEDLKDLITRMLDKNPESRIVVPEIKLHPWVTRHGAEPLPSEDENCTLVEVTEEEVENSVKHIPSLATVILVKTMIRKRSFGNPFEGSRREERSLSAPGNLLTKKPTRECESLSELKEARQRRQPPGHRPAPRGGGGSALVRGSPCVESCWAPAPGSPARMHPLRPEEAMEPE
Test [10] addresses Tyrosine-protein kinase Lyn (Homo sapiens, UniProt P07948). The test is described as follows: Selectivity interaction (KinomeScan (DiscoverX)) EUB0000045b LYN.
Test [11] has as its target T3, Serine/threonine-protein kinase TAO1 (Homo sapiens) (UniProt Q7L7X3).
T3 sequence (whole entry): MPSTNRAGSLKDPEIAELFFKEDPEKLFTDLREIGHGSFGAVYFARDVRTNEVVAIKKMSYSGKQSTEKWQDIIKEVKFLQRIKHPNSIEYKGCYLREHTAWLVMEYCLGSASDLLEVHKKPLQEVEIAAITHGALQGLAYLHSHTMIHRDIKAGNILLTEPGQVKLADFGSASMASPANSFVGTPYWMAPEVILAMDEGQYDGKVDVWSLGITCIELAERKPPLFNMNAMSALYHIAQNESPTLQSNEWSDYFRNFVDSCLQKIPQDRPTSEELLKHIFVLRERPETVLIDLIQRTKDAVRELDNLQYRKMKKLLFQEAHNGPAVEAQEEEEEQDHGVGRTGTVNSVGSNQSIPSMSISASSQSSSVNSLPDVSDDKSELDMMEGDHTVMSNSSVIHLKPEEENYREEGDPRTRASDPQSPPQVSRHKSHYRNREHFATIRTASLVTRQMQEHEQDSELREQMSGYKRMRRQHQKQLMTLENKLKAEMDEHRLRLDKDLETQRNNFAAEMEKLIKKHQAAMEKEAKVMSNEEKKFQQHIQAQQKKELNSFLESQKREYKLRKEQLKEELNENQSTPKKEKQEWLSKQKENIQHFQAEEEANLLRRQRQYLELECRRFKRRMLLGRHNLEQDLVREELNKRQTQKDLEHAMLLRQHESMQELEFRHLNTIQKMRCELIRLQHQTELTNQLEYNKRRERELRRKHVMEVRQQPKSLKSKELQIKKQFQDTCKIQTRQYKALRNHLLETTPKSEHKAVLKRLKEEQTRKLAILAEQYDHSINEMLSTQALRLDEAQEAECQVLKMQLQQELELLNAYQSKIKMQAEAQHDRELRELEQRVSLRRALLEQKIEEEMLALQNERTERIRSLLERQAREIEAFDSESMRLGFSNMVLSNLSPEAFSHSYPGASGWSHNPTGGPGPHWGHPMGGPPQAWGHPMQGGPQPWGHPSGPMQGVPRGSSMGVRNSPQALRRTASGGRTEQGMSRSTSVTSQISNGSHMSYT
The test is described as follows: Selectivity interaction (KinomeScan (DiscoverX)) EUB0000618a TAOK1. The settings on record: at 10 µM.

The target in test [12] is Mitogen-activated protein kinase kinase kinase 10 (Homo sapiens) (UniProt Q02779). Kind of test: Selectivity interaction (KinomeScan (DiscoverX)) EUB0000595a MAP3K10. The settings on record: at 10 µM.
Mitogen-activated protein kinase kinase kinase 10 (Homo sapiens), sequence (Q02779 whole entry, looked up): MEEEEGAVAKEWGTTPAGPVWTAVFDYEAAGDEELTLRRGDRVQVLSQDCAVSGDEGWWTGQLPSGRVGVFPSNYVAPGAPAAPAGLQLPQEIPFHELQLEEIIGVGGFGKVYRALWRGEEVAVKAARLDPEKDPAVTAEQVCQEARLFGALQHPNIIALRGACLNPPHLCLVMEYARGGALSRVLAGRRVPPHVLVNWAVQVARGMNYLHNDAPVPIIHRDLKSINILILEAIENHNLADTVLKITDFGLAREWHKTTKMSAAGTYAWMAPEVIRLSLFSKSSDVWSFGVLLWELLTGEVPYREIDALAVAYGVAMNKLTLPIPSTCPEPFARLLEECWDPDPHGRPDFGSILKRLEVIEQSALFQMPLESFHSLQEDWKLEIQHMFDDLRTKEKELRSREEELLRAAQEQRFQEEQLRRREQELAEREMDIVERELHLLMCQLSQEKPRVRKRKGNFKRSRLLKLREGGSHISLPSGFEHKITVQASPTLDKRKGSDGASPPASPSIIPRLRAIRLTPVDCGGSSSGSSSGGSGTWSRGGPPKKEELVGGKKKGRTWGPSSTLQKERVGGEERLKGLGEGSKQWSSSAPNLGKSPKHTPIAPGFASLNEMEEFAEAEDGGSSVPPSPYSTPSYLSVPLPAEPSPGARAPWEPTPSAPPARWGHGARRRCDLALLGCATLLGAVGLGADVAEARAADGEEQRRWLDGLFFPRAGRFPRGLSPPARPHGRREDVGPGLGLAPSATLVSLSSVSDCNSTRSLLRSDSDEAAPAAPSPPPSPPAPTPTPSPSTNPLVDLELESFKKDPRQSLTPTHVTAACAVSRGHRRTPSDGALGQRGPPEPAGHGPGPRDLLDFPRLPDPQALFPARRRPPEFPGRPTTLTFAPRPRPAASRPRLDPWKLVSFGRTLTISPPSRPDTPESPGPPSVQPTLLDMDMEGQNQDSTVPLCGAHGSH

Tyrosine-protein kinase Lyn, sequence (P07948 2-512 limits assumed): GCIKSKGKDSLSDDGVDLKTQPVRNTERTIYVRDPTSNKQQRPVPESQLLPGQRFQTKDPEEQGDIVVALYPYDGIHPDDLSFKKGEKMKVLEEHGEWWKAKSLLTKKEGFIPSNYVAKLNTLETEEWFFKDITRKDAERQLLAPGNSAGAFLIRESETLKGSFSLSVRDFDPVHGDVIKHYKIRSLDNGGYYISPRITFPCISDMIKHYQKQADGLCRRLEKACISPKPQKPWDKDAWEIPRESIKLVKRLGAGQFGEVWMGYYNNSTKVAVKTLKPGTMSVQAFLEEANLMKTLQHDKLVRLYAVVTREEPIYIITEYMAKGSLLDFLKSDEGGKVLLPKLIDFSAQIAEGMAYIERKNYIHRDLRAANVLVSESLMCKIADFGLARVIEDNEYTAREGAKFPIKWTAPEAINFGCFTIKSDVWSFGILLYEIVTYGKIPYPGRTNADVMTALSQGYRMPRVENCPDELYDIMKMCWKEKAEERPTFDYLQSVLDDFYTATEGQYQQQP
Casein kinase I isoform epsilon, sequence (P49674 whole entry, looked up, canonical isoform): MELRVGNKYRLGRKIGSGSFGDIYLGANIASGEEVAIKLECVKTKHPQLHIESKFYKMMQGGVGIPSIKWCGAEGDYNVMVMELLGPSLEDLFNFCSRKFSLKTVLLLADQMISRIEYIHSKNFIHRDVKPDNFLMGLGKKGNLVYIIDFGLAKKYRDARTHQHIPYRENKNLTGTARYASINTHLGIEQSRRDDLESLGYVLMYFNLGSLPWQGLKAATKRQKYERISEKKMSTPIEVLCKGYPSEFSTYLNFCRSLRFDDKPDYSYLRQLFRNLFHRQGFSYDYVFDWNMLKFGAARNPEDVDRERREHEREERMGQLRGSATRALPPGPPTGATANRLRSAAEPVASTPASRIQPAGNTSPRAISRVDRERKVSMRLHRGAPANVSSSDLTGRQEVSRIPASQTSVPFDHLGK
Cyclin-dependent kinase 17 (Homo sapiens), sequence (Q00537 whole entry, looked up, the tested form may be a part): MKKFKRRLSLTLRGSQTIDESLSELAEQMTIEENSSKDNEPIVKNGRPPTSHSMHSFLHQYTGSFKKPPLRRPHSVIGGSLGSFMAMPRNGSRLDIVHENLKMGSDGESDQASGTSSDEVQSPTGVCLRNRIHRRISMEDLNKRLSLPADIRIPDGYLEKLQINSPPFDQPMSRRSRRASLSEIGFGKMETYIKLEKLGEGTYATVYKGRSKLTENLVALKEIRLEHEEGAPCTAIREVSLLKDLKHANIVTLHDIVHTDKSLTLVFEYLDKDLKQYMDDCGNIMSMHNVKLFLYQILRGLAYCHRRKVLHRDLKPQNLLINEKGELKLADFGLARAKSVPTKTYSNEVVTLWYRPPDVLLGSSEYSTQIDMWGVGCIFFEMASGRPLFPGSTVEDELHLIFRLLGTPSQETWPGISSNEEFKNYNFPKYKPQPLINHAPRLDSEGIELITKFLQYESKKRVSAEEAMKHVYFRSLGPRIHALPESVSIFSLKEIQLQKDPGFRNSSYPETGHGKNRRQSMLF

The molecule `O=C(NOC[C@H](O)CO)c1ccc(F)c(F)c1Nc1ccc(I)cc1F` displayed a % of control in test [1] of 95%. As for `Nc1cnc(N2CCc3cc(S(=O)(=O)Nc4c(F)cc(Cl)cc4F)cc(N4CCCC4=O)c32)nc1` [TP-020n], in [2], the % of control turned out to be 83%. For the molecule `CC[C@@H]1[C@H](F)C(=O)N[C@@H]1COc1nccc2cc(C(N)=O)c(OC)cc12` [ZIMLOVISERTIB], the % of inhibition in [3] worked out at 42.3%; in test [4], 4.3%; in [5], 37.4%. `CCN(CC)CCCCNc1ncc2cc(-c3cc(OC)cc(OC)c3)c(NC(=O)NC(C)(C)C)nc2n1` displayed a % of control in [6] of 36%.

Consider `COc1cc(Nc2nc(C)cc(-c3cnn4nc(OC)ccc34)n2)cc(C(F)(F)F)c1`, for which the % of control in test [7] came to 90%.

For `Cc1cc(F)c(C(=O)Nc2cccc(-c3nncn3C(C)C)n2)cc1-n1cnc(C2CC2)c1`, the % of control in test [8] stood at 100%. Turning to `C=CC(=O)Nc1cc(-n2c(=O)ccc3cnc4ccc(-c5ccc(NS(C)(=O)=O)cc5)cc4c32)ccc1C`, the % of control in test [9] (at 1 µM) was 100%; in test [9] (at 10 µM), 92%; in [10] (at 1 µM), 92%; in test [10] (at 10 µM) it was 91%.

In [11], `O[C@H]1CC[C@H](Nc2ncc3nc(Nc4c(F)cc(F)cc4F)n([C@H]4CCOC4)c3n2)CC1` displayed a % of control of 81%. `COCC(=O)NC/C=C/c1ccc2ncnc(Nc3ccc(Oc4ccc(C)nc4)c(C)c3)c2c1` [CP-724714] displayed a % of control in test [12] of 100%.
